Experimental data reported in patent US11034648B2, “Cystobactamide derivatives” (priority 2017, dated 2021).
Values after ≈ are worked out from the molar mass of the structure shown.

What was measured:
P. aeruginosa ΔmexAB = test: microbe, parasite or virus in culture; format: cell-based; conditions: efflux-deficient strain; small panel, Tables 1a/1b
Method in brief: (§1)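 Overnight cultures were diluted in cation-adjusted Müller-Hinton broth to 10^4-10^6 cfu/mL and grown with serially diluted compound (from DMSO stocks) for approx. 16 h at 30-37° C. MIC is the lowest concentration with no visible bacterial growth.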

[1] = test system: E. coli WT-3 [gyrA(S83L,D87G)]; test: microbe, parasite or virus in culture; format: cell-based
Method in brief: as §1

E. coli ΔtolC = test: microbe, parasite or virus in culture; format: cell-based; conditions: small panel, Tables 1a/1b; no visual growth after approx. 16 h
Method in brief: as §1

E. coli gyrase = biological target: T1, E. coli gyrase (Escherichia coli, UniProt P0AES4+P0AES6); test: E. coli gyrase supercoiling (sc) assay; format: biochemical; conditions: supercoiling assay kit, agarose gel quantification; read-out: Ec gyrase sc IC50
T1 construct: purchased Inspiralis
Method in brief: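 Supercoiling of relaxed plasmid by E. coli gyrase measured with a commercial kit per manufacturer's protocol. Products resolved on 0.8% (w/v) agarose, ethidium bromide-stained. Bands quantified by image analysis and IC50 derived by sigmoidal curve fitting.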

[2] = test system: E. coli WT-III [marRΔ74bp]; format: cell-based; conditions: fluoroquinolone-resistant mutant; Table 2a
Procedure: (§2) Cystobactamid derivatives synthesized were tested against relevant Gram negative and positive bacteria of clinical interest. Experimental procedures used for the biological characterization of the compounds are the same as previously described in WO 2016/082934.
(§3) Bacterial strains used in susceptibility assays (minimum inhibitory concentration, MIC) were either part of our internal strain collection or purchased from the German Collection of Microorganisms and Cell Cultures (Deutsche Sammlung von Mikroorganismen und Zellkulturen, DSMZ) and the American Type Culture Collection (ATCC). The susceptible E. coli strain (WT) and fluoroquinolone-resistant mutants E. coli WT-3 and WT-III were kindly provided by Prof Dr. P. Heisig, Pharmaceutical Biology and Microbiology, University of Hamburg, Germany. The efflux-deficient strain P. aeruginosa ΔmexAB was kindly provided by Prof Dr. S. Häußler, Institute for Molecular Bacteriology, TWINCORE, Hannover, Germany. All compounds were prepared as DMSO stocks and MIC values were determined in standard microbroth dilution assays in 96-well MTPs as described in Baumann et al., Angew Chem Int Ed Engl. 2014; 53(52):14605-9. In brief, overnight cultures of bacteria were diluted in either tryptic soy broth (TSB: 1.7% peptone casein, 0.3% peptone soymeal, 0.25% glucose, 0.5% NaCl, 0.25% K2HPO4; pH 7.3; S. pneumoniae and E. faecalis) or cation-adjusted Müller-Hinton Broth (BBL™, BD; all other bacteria) and adjusted to 10^4-10^6 cfu/mL. Bacteria were grown in the presence of the derivatives in serial dilution for approx. 16 h at 30-37° C. MIC values were determined and were defined as the antibiotic concentration at which no visual growth of bacteria was observed.

P. mirabilis = test: MIC, microbroth dilution susceptibility assay (Table 2b); format: cell-based; conditions: larger panel
Procedure: as §2, §3

C. freundii = test: as above; format: cell-based; conditions: larger panel
Procedure: as §2, §3

E. faecalis = test: as above; format: cell-based; conditions: larger panel
Procedure: as §2, §3

P. aeruginosa ESBL 2 = test: as above; format: cell-based; conditions: larger panel
Procedure: as §2, §3

E. aerogenes = test: as above; format: cell-based; conditions: larger panel
Procedure: as §2, §3

S. epidermidis = test: as above; format: cell-based; conditions: larger panel
Procedure: as §2, §3

A. baumannii = test: as above; format: cell-based; conditions: larger panel
Procedure: as §2, §3

K. pneumoniae = test: as above; format: cell-based; conditions: larger panel
Procedure: as §2, §3

P. aeruginosa ESBL 1 = test: as above; format: cell-based; conditions: larger panel
Procedure: as §2, §3

S. marcescens = test: as above; format: cell-based; conditions: larger panel
Procedure: as §2, §3

P. vulgaris = test: as above; format: cell-based; conditions: larger panel
Procedure: as §2, §3

E. cloacae = test: as above; format: cell-based; conditions: larger panel
Procedure: as §2, §3

P. vulgaris DSM-2140 = test: MIC, microbroth dilution susceptibility assay; format: cell-based; conditions: large panel, Table 2a
Method in brief: as §1

E. faecalis ATCC-29212 = test: MIC, microbroth dilution susceptibility assay; format: cell-based; conditions: large panel, Table 2a; TSB
Method in brief: as §1

S. pneumoniae DSM-20566 = test: MIC, microbroth dilution susceptibility assay; format: cell-based; conditions: large panel, Table 2a; TSB
Method in brief: as §1

E. coli WT DSM-1116 = test: MIC, microbroth dilution susceptibility assay; format: cell-based; conditions: small panel, Tables 1a/1b; no visual growth after approx. 16 h
Method in brief: as §1

S. marcescens DSM-30121 = test: MIC, microbroth dilution susceptibility assay; format: cell-based; conditions: large panel, Table 2a
Method in brief: as §1

S. aureus ATCC-29213 = test: MIC, microbroth dilution susceptibility assay; format: cell-based; conditions: large panel, Table 2a
Method in brief: as §1

C. freundii DSM-30039 = test: MIC, microbroth dilution susceptibility assay; format: cell-based; conditions: large panel, Table 2a
Method in brief: as §1

K. pneumoniae DSM-30104 = test: MIC, microbroth dilution susceptibility assay; format: cell-based; conditions: large panel, Table 2a
Method in brief: as §1

P. aeruginosa DSM-46316 = test: MIC, microbroth dilution susceptibility assay; format: cell-based; conditions: large panel, Table 2a
Method in brief: as §1

P. aeruginosa WT PA14 = test: MIC, microbroth dilution susceptibility assay; format: cell-based; conditions: small panel, Tables 1a/1b
Method in brief: as §1

S. epidermidis DSM-28765 = test: MIC, microbroth dilution susceptibility assay; format: cell-based; conditions: large panel, Table 2a
Method in brief: as §1

S. aureus Newman = test: MIC, microbroth dilution susceptibility assay; format: cell-based; conditions: small panel, Tables 1a/1b
Method in brief: as §1

E. cloacae DSM-30054 = test: MIC, microbroth dilution susceptibility assay; format: cell-based; conditions: large panel, Table 2a
Method in brief: as §1

P. aeruginosa DSM-24600 = test: MIC, microbroth dilution susceptibility assay; format: cell-based; conditions: large panel, Table 2a
Method in brief: as §1

E. coli WT = test: MIC, microbroth dilution susceptibility assay; format: cell-based
Method in brief: as §1

P. mirabilis DSM-2140 = test: MIC, microbroth dilution susceptibility assay; format: cell-based; conditions: large panel, Table 2a
Method in brief: as §1

A. baumannii DSM-30008 = test: MIC, microbroth dilution susceptibility assay; format: cell-based; conditions: large panel, Table 2a
Method in brief: as §1

E. aerogenes DSM-30053 = test: MIC, microbroth dilution susceptibility assay; format: cell-based; conditions: large panel, Table 2a
Method in brief: as §1

CO[C@@H](C(N)=O)[C@H](NC(=O)c1ccc(NC(=O)c2ccc([N+](=O)[O-])cc2)cc1)C(=O)Nc1ccc(C(=O)Nc2ccc(C(=O)Nc3ccc(C(=O)O)cc3)c(O)c2OC(C)C)cc1 [Cys861-2, reference compound]
MIC P. aeruginosa ΔmexAB (P. aeruginosa ΔmexAB): 0.5 µg/mL (≈ 0.58 µM) | MIC E. coli WT-3 [gyrA(S83L, D87G)] ([1]; fluoroquinolone-resistant mutant, Table 2a): 0.5 µg/mL (≈ 0.58 µM) | MIC E. coli WT-3 [gyrA(S83L, D87G)] ([1]; larger panel, Table 2b): 0.5 µg/mL (≈ 0.58 µM) | MIC E. coli ΔtolC (E. coli ΔtolC): 0.125 µg/mL (≈ 0.145 µM) | IC50 (E. coli gyrase): 220 nM | MIC E. coli WT-III [marRΔ74bp] [2]: 0.5 µg/mL (≈ 0.58 µM) | MIC P. mirabilis (P. mirabilis): 32 µg/mL (≈ 37.1 µM) | MIC C. freundii (C. freundii): 0.125 µg/mL (≈ 0.145 µM) | MIC E. faecalis (E. faecalis): 1 µg/mL (≈ 1.16 µM) | MIC P. aeruginosa ESBL 2 (P. aeruginosa ESBL 2): 2 µg/mL (≈ 2.32 µM) | MIC E. aerogenes (E. aerogenes): >64 µg/mL | MIC S. epidermidis (S. epidermidis): 0.5 µg/mL (≈ 0.58 µM) | MIC A. baumannii (A. baumannii): 1 µg/mL (≈ 1.16 µM) | MIC K. pneumoniae (K. pneumoniae): >64 µg/mL | MIC P. aeruginosa ESBL 1 (P. aeruginosa ESBL 1): 4 µg/mL (≈ 4.64 µM) | MIC S. marcescens (S. marcescens): >64 µg/mL | MIC P. vulgaris (P. vulgaris): 0.25 µg/mL (≈ 0.29 µM) | MIC E. cloacae (E. cloacae): >64 µg/mL | MIC P. vulgaris DSM-2140 (P. vulgaris DSM-2140): 0.25 µg/mL (≈ 0.29 µM) | MIC E. faecalis ATCC-29212 (E. faecalis ATCC-29212): 1 µg/mL (≈ 1.16 µM) | MIC S. pneumoniae DSM-20566 (S. pneumoniae DSM-20566): 0.06 µg/mL (≈ 0.0696 µM) | MIC E. coli WT DSM-1116 (E. coli WT DSM-1116): 0.125 µg/mL (≈ 0.145 µM) | MIC S. marcescens DSM-30121 (S. marcescens DSM-30121): 64 µg/mL (≈ 74.3 µM) | MIC S. aureus ATCC-29213 (S. aureus ATCC-29213): 0.25 µg/mL (≈ 0.29 µM) | MIC C. freundii DSM-30039 (C. freundii DSM-30039): 0.06 µg/mL (≈ 0.0696 µM) | MIC K. pneumoniae DSM-30104 (K. pneumoniae DSM-30104): >64 µg/mL | MIC P. aeruginosa DSM-46316 (P. aeruginosa DSM-46316): 2 µg/mL (≈ 2.32 µM) | MIC P. aeruginosa WT PA14 (P. aeruginosa WT PA14): 2 µg/mL (≈ 2.32 µM) | MIC S. epidermidis DSM-28765 (S. epidermidis DSM-28765): 0.5 µg/mL (≈ 0.58 µM) | MIC S. aureus Newman (S. aureus Newman): 0.5 µg/mL (≈ 0.58 µM) | MIC E. cloacae DSM-30054 (E. cloacae DSM-30054): 64 µg/mL (≈ 74.3 µM) | MIC P. aeruginosa DSM-24600 (P. aeruginosa DSM-24600): 1 µg/mL (≈ 1.16 µM) | MIC E. coli WT (E. coli WT; large panel, Table 2a): 0.13 µg/mL (≈ 0.151 µM) | MIC E. coli WT (E. coli WT; larger panel, Table 2b): 0.06 µg/mL (≈ 0.0696 µM) | MIC P. mirabilis DSM-2140 (P. mirabilis DSM-2140): >64 µg/mL | MIC A. baumannii DSM-30008 (A. baumannii DSM-30008): 0.5 µg/mL (≈ 0.58 µM) | MIC E. aerogenes DSM-30053 (E. aerogenes DSM-30053): >64 µg/mL
